Results published in patent US20030061671A1, “Thioxanthone dyes with improved solubility and a method of preparing 2-oxybenzanthrones as intermediate materials for making of these dyes” (priority 2001, published 2003).
Where two headings read alike, the source gives them in different places.

Experiments:
[1] = Solubility comparison in chloroform (chloroform added to 0.1 g dye until full solubility); format: physicochemical
Method: Solubility Comparison of the Claimed compound and the Prototype
Two mixtures were prepared for comparison. The first one contained a dye prepared as per Example 1 by taking 0.1 g of the dye and adding chloroform until full solubility. The second mixture was prepared using 0.1 g of 6-methoxy-14H-anthra(2,1,9-mna)thioxanthene-14-one dye and also adding chloroform until its full solubility. At the end, 30 ml of chloroform was required to solute 0.1 g of the dye in the first mixture while 120 ml of the chloroform was required to solute the same amount of dye in case of the prototype.

[2] = colorant described by Carlini et al.; cited from earlier work

In the case of “6-n-Octyloxy-14H-anthra(2,1,9 mna)thioxanthene-14-one [Example 1]”, the “chloroform required to solute 0.1 g of the dye” value ([1]; 0.1 g dye, chloroform added until full solubility) is reported as 30 mL and the “improvement in solubility in chloroform versus prototype” value ([1]; claimed dye vs 6-methoxy prototype, chloroform) is reported as “four-fold”.

In the case of `COc1cc2c3ccccc3c(=O)c3ccc4c5ccccc5sc1c4c32` [6-methoxy-14H-anthra(2,1,9-mna)thioxanthene-14-one], the “chloroform required to solute 0.1 g of the dye” value [1] is given as 120 mL and the “solubility in organic solvents and polymer materials” value [2] is given as “poorly soluble”.
